Measurements published in patent publication US12215133B2 (BrightGene Bio-Medical Technology Co., Ltd., priority 2021, dated 2025).
pEC50: −log10 of the molar value. Where two headings read alike, the source gives them in different places. Marks after values point to notes of the source that are not given here.

What was measured:
[1] = target: T1, GLP-1 receptor (Homo sapiens, UniProt P43220); test: cAMP experiment, GLP-1 receptor (HEK293 host cell line); assay type: cell-based; details: HEK293 host cells
T1 construct: expressed in transfected cells; host or cells: HEK293 cell line

[2] = system: C57BL/6 mouse model having STZ-HFD feed-induced diabetes combined NASH; assay type: in vivo; details: STZ+HFD C57BL/6 mice; for Fasting blood glucose / Ballooning lesion (score) / Inflammatory cell infiltration (score) / Steatosis (score) / Total score of NAS / Fibrosis percentage / % HbAC (glycosylated hemoglobin) / ALT / AST / HDL-c / LDL-c / TC / TG / Percentage of decrease in % HbAC: Mean ± SEM; for Ballooning lesion (score) / Inflammatory cell infiltration (score) / Steatosis (score) / Total score of NAS / Fibrosis percentage / % HbAC (glycosylated hemoglobin) / ALT / AST / HDL-c / LDL-c / TC / TG: 7 weeks; for Ballooning lesion (score) / Inflammatory cell infiltration (score) / Steatosis (score) / Total score of NAS: liver H&E; for Ballooning lesion (score) / Inflammatory cell infiltration (score) / Steatosis (score): NAS criteria; for Fibrosis percentage: liver sirius red staining; for % HbAC (glycosylated hemoglobin): peripheral blood; for ALT / AST / HDL-c / LDL-c / TC / TG: serum; for HbA1c % decreased by, taking the HbA1C % of the model group as the baseline value: FIG. 20; for Percentage of decrease in % HbAC: model group as baseline; for Number of animal deaths: 13 enrolled
Method: According to the dosage regimen, a certain amount of Tirzepatide and BG128 were weighed and the vehicle (pH=7.0, 20 mM sodium citrate buffer) was added to formulated to the corresponding concentration.
• Germline: C57BL/6 • Grade: SPF level • Number and gender: 30 pregnant female mice • Supplier: Shanghai Jihui Laboratory Animal Care Co., Ltd. 1.3.2 Animal Feeding Management
Animals were kept in the barrier system, the environmental conditions in the animal room were controlled as room temperature of 20° C.-26° C. and humidity of 40%-70%, and the breeders recorded once every morning and afternoon. Free drinking and normal feeding.
Newborn male mice were subcutaneously injected with STZ (100 μg/mouse) within 48 h of birth and fed by the female mice for four weeks, then the fasting blood glucose of the male mice was determined.
10 newborn male mice were selected, without STZ injection, and fed by the female mice for four weeks. The male mice were separated into cages and fed with normal maintenance feed and used as the normal control group; other mice were fed with HFD feed for one week, the fasting blood glucose of the animals was determined, and according to the fasting blood glucose and body weight, the animals were randomly grouped into: normal control group, model group, Tirzepatide—0.15 mg/kg group, BG128—0.05 mg/kg group, BG128—0.15 mg/kg group, and BG128—0.5 mg/kg group, and see Table 12 for details.
Administration began on the first day of week 2 of HFD feed feeding, and the experiment was ended after 7 weeks of continuous administration.
Observation was performed at the start of the experiment once a day until the end of the experiment.
The animals were weighed once every three days from the time of feeding with HFD feed until the end of the experiment.
The food intake of the animals was recorded from the time of feeding with HFD feed until the end of the experiment. The remaining amount was weighed before administration each time.
The fasting blood glucose was determined using the Roche blood glucose meter after 4 weeks of breast-feeding by the female mouse (that is, before HFD feeding), before administration, and 1 week, 2 weeks, 3 weeks, 4 weeks, 5 weeks, 6 weeks and 7 weeks after administration and at the end point of experiment.
3 days after the last administration, the animals were weighed and fasted for 6 hours; all experimental animals were anesthetized by intraperitoneal injection of pentobarbital sodium, non-anticoagulated whole blood was collected through the orbital venous plexus, stood at room temperature for 30 minutes, and centrifuged at 5000 rpm for 5 minutes, the serum was separated and frozen at −80° C. for the biochemical determination; and EDTA-K2 anticoagulated whole blood was collected through the orbital venous plexus and placed on wet ice for the determination of HbA1C content.
The serum sample was taken from −80° C., and the contents of ALT, AST, TG, TC, HDL-c and LDL-c in serum and HbA1C in whole blood were determined by Hitachi 7060 automatic biochemical detector, and the content of insulin was determined by enzyme-linked immunosorbent assay kit.
The mice were dissected according to procedure. After perfusion with pre-cooled normal saline, the liver was taken, photographed, weighed, soaked in 10% formalin and fixed for pathological HE staining. Liver paraffin sections of all animals were stained with HE according to KCI pathological staining standard SOP. All the stained sections were panoramically scanned by NanoZoomer Digital Pathology (S210, Hamamaci, Japan) scanner, and then observed at different magnifications by selecting different fields of view.
The mice were dissected according to procedure. After perfusion with pre-cooled normal saline, the liver was taken, photographed, weighed, soaked in 10% formalin and fixed for pathological sirius red (SR) staining. Liver paraffin sections were stained with SR according to KCI pathological staining standard SOP.

[3] = 0.05 mg/kg s.c. once every three days
[4] = 0.15 mg/kg s.c. once every three days
[5] = 0.5 mg/kg s.c. once every three days

T1 sequence (P43220 24-463, species assumed): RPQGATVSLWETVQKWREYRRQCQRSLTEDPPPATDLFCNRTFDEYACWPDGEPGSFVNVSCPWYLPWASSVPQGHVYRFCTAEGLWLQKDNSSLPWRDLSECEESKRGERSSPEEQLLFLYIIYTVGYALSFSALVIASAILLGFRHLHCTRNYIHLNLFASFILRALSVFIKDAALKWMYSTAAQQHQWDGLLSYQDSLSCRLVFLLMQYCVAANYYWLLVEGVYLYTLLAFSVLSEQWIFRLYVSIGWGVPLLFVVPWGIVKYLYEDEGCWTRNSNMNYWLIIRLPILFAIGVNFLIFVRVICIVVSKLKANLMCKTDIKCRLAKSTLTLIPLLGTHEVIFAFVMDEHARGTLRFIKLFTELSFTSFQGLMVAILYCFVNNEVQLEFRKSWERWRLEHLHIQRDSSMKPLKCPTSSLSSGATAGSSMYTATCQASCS

Work on `CNC(CCCCNC(=O)COCCOCCOCCNC(=O)COCCOCCOCCNC(=O)CCC(NC(=O)CC(=O)O)C(=O)O)C(N)=O` (stereo not drawn) [BG128] yielded a pEC50 [1] of 9.96, a Fasting blood glucose ([2]; 0.05 mg/kg group, Before HFD (baseline)) of 18.28 ± 1.18 mmol/L and a Fasting blood glucose ([2]; 0.05 mg/kg group, Before administration (baseline)) of 25.59 ± 0.91 mmol/L. The “Ballooning lesion (score)” value [2, 3] was 0.00 ± 0.00, the “Inflammatory cell infiltration (score)” value [2, 3] was 0.91 ± 0.08ª and the “Steatosis (score)” value [2, 3] was 0.52 ± 0.12ª. The “Total score of NAS” value [2, 3] was 1.42 ± 0.14ª, the Fibrosis percentage [2, 3] was 1.11 ± 0.05^a % and the “% HbAC (glycosylated hemoglobin)” value [2, 3] was 1.00 ± 0.23. The ALT [2, 3] was 73.97 ± 9.20 U/L, the AST [2, 3] was 155.44 ± 10.85 U/L and the HDL-c [2, 3] was 2.30 ± 0.09 mmol/L. The LDL-c [2, 3] was 0.56 ± 0.03^b mmol/L, the TC [2, 3] was 3.81 ± 0.15^c mmol/L and the TG [2, 3] was 1.09 ± 0.20^b mmol/L. For the same compound, the Fasting blood glucose ([2]; 0.05 mg/kg s.c. once every three days, Administration for 1 week) was 15.62 ± 1.42^a mmol/L, the Fasting blood glucose ([2]; 0.05 mg/kg s.c. once every three days, Administration for 2 weeks) was 14.13 ± 1.61^a mmol/L and the Fasting blood glucose ([2]; 0.05 mg/kg s.c. once every three days, Administration for 3 weeks) was 16.89 ± 1.85^a mmol/L. For the same compound, the Fasting blood glucose ([2]; 0.05 mg/kg s.c. once every three days, Administration for 4 weeks) was 12.89 ± 1.83^a mmol/L, the Fasting blood glucose ([2]; 0.05 mg/kg s.c. once every three days, Administration for 5 weeks) was 18.32 ± 1.62^a mmol/L and the Fasting blood glucose ([2]; 0.05 mg/kg s.c. once every three days, Administration for 6 weeks) was 21.82 ± 2.11^a mmol/L. For the same compound, the Fasting blood glucose ([2]; 0.05 mg/kg s.c. once every three days, Administration for 7 weeks) was 18.89 ± 1.89^a mmol/L, the Fasting blood glucose ([2]; 0.05 mg/kg s.c. once every three days, Endpoint) was 15.81 ± 1.83^a mmol/L and the serum insulin concentration ([2]; 0.05 mg/kg s.c. once every three days, FIG. 19) was “decreased”. The “HbA1c % decreased by, taking the HbA1C % of the model group as the baseline value” (“HbA1c % decreased by, taking the HbA1C %” below) [2, 3] was 0.97%, the “Percentage of decrease in % HbAC” value [2, 3] was −0.97 ± 0.23 and the Fasting blood glucose ([2]; 0.15 mg/kg group, Before HFD (baseline)) was 17.69 ± 0.81 mmol/L. The Fasting blood glucose ([2]; 0.15 mg/kg group, Before administration (baseline)) was 25.71 ± 0.91 mmol/L, the “tolerance of model animals” value [2, 4] was “good tolerance” and the “Ballooning lesion (score)” value [2, 4] was 0.00 ± 0.00ª. For the same compound, the “Inflammatory cell infiltration (score)” value [2, 4] was 0.90 ± 0.06ª, the “Steatosis (score)” value [2, 4] was 0.46 ± 0.13ª and the “Total score of NAS” value [2, 4] was 1.36 ± 0.15ª. The Fibrosis percentage [2, 4] was 1.10 ± 0.04^b %, the “% HbAC (glycosylated hemoglobin)” value [2, 4] was 1.31 ± 0.19 and the ALT [2, 4] was 67.58 ± 7.73^a U/L. The AST [2, 4] was 152.48 ± 6.56^a U/L, the HDL-c [2, 4] was 1.83 ± 0.22 mmol/L and the LDL-c [2, 4] was 0.65 ± 0.10^c mmol/L. For the same compound, the TC [2, 4] was 3.25 ± 0.12^c mmol/L, the TG [2, 4] was 0.84 ± 0.12^b mmol/L and the Fasting blood glucose ([2]; 0.15 mg/kg s.c. once every three days, Administration for 1 week) was 15.43 ± 1.66^a mmol/L. For the same compound, the Fasting blood glucose ([2]; 0.15 mg/kg s.c. once every three days, Administration for 2 weeks) was 14.61 ± 1.45^a mmol/L, the Fasting blood glucose ([2]; 0.15 mg/kg s.c. once every three days, Administration for 3 weeks) was 14.83 ± 1.49^a mmol/L and the Fasting blood glucose ([2]; 0.15 mg/kg s.c. once every three days, Administration for 4 weeks) was 14.52 ± 2.09^a mmol/L. The Fasting blood glucose ([2]; 0.15 mg/kg s.c. once every three days, Administration for 5 weeks) was 15.75 ± 1.81^a mmol/L, the Fasting blood glucose ([2]; 0.15 mg/kg s.c. once every three days, Administration for 6 weeks) was 17.88 ± 2.05^a mmol/L and the Fasting blood glucose ([2]; 0.15 mg/kg s.c. once every three days, Administration for 7 weeks) was 17.26 ± 1.97^a mmol/L. The Fasting blood glucose ([2]; 0.15 mg/kg s.c. once every three days, Endpoint) was 16.85 ± 2.04^a mmol/L, the serum insulin concentration ([2]; 0.15 mg/kg s.c. once every three days, FIG. 19) was “statistically significant compared with the db/db-NDJ group” and the “HbA1c % decreased by, taking the HbA1C %” value [2, 4] was 0.66%. For the same compound, the “Percentage of decrease in % HbAC” value [2, 4] was −0.66 ± 0.19, the Fasting blood glucose ([2]; 0.5 mg/kg group, Before HFD (baseline)) was 18.59 ± 0.88 mmol/L and the Fasting blood glucose ([2]; 0.5 mg/kg group, Before administration (baseline)) was 25.81 ± 1.08 mmol/L. For the same compound, the “tolerance of model animals” value ([2]; 0.50 mg/kg s.c. once every three days) was “good tolerance”, the “Ballooning lesion (score)” value [2, 5] was 0.00 ± 0.00 and the “Inflammatory cell infiltration (score)” value [2, 5] was 1.03 ± 0.05ª. The “Steatosis (score)” value [2, 5] was 0.33 ± 0.08ª, the “Total score of NAS” value [2, 5] was 1.36 ± 0.10ª and the Fibrosis percentage [2, 5] was 1.07 ± 0.05^c %. The “% HbAC (glycosylated hemoglobin)” value [2, 5] was 0.94 ± 0.25^a, the ALT [2, 5] was 58.46 ± 5.38^b U/L and the AST [2, 5] was 150.54 ± 6.26^a U/L. For the same compound, the HDL-c [2, 5] was 2.13 ± 0.13 mmol/L, the LDL-c [2, 5] was 0.62 ± 0.03^c mmol/L and the TC [2, 5] was 3.53 ± 0.09^c mmol/L. For the same compound, the TG [2, 5] was 0.88 ± 0.14^b mmol/L, the Fasting blood glucose ([2]; 0.5 mg/kg s.c. once every three days, Administration for 1 week) was 11.39 ± 0.86^a mmol/L and the Fasting blood glucose ([2]; 0.5 mg/kg s.c. once every three days, Administration for 2 weeks) was 12.82 ± 1.12^a mmol/L. For the same compound, the Fasting blood glucose ([2]; 0.5 mg/kg s.c. once every three days, Administration for 3 weeks) was 13.35 ± 1.37^a mmol/L, the Fasting blood glucose ([2]; 0.5 mg/kg s.c. once every three days, Administration for 4 weeks) was 11.39 ± 1.20^a mmol/L and the Fasting blood glucose ([2]; 0.5 mg/kg s.c. once every three days, Administration for 5 weeks) was 12.31 ± 1.47^a mmol/L. The Fasting blood glucose ([2]; 0.5 mg/kg s.c. once every three days, Administration for 6 weeks) was 12.17 ± 1.70^abd mmol/L, the Fasting blood glucose ([2]; 0.5 mg/kg s.c. once every three days, Administration for 7 weeks) was 10.45 ± 1.34^acd mmol/L and the Fasting blood glucose ([2]; 0.5 mg/kg s.c. once every three days, Endpoint) was 12.27 ± 1.61^a mmol/L. The serum insulin concentration ([2]; 0.5 mg/kg s.c. once every three days, FIG. 19) was “statistically significant compared with the db/db-NDJ group”, the “HbA1c % decreased by, taking the HbA1C %” value [2, 5] was 1.04% and the “Percentage of decrease in % HbAC” value [2, 5] was −1.04 ± 0.25. The “Number of animal deaths” value ([2]; Group-3/Group-5, 0.15 mg/kg s.c. once every three days) was 0, the “Number of animal deaths” value ([2]; Group-4, 0.05 mg/kg s.c. once every three days) was 2 (Day 45, 51) and the “Number of animal deaths” value ([2]; Group-6, 0.5 mg/kg s.c. once every three days) was 0. The “body weight after the first administration” value ([2]; Tirzepatide 0.15 mg/kg, BG128 0.05, 0.15, 0.5 mg/kg s.c., FIG. 16) was “positively correlated with the administration dose”, the “food intake compared with Tirzepatide” value ([2]; equal dose (0.15 mg/kg s.c.), FIG. 17) was “lower than that of the Trizepatide administration animals in the group with the equal dose” and the “effect on serum insulin compared with Tirzepatide” value ([2]; equal dose (0.15 mg/kg s.c.), FIG. 19) was “better than that of the Tirzepatide group at an equal dose”.
